Experimental data taken from patent publication US20050148586A1 (priority 2004, published 2005).
pIC50: −log10 of the molar value.

Target: T1, glycogen phosphorylase (from rabbit muscle, Sigma P1261) (Oryctolagus cuniculus, UniProt P00489)
T1 construct: glycogen phosphorylase (from rabbit muscle, Sigma P1261); purchased Sigma P1261; host or cells: rabbit muscle (tissue-derived)
T1 sequence (P00489 2-843 limits assumed): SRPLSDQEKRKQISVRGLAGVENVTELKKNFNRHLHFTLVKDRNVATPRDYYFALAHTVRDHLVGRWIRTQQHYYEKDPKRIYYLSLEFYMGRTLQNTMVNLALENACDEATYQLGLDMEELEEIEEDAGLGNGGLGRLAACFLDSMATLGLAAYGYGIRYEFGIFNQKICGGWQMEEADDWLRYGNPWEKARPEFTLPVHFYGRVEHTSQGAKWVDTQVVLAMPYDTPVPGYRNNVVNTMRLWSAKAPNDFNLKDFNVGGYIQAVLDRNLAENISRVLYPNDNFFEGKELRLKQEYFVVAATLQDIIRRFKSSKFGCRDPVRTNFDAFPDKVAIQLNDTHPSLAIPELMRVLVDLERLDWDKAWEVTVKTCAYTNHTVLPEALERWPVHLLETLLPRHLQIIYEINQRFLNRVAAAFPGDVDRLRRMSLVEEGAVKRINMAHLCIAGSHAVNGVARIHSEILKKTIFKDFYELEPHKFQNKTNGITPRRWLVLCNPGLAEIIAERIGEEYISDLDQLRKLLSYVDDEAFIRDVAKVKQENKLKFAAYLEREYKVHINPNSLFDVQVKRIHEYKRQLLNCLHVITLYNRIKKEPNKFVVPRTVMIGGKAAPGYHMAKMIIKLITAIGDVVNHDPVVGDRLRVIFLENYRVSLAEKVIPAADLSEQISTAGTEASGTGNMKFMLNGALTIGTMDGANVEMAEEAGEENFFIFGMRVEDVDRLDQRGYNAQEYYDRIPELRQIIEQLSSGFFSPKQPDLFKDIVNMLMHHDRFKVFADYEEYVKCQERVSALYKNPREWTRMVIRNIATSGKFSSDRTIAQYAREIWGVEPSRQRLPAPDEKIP
Assay: Enzyme Inhibition Assay (malachite green phosphate readout)
Format: biochemical
Conditions: for pIC50: +/−.05; for inhibition at 20 µM: @ 20 μM test compound, percent inhibition (±10%) of enzymatic activity
Protocol: All samples contain 2% DMSO, and the background lacks enzyme but contains all substrates. The reaction was stopped by the addition of […] of a 1N HCl solution containing 10 mg/ml ammonium molybdate and 0.38 mg/ml malachite green. After a 15-minute incubation period to allow the colored reaction (a quantitative measurement of inorganic phosphate) to develop, the colored wells were read at 650 nm. Data was reported as percent inhibition (±10%) of enzymatic activity at a specified concentration.

SMILES | pIC50 | inhibition at 20 µM [%]
Cn1c(=O)c(Nc2ccc(-n3ccnc3)cc2)nc2ccccc21 [Compound 23, 3-(4-imidazol-1-yl-phenylamino)-1-methyl-1H-quinoxalin-2-one] | 5.60 | 82
Cn1c(=O)c(Nc2ccc(NC(=O)c3ccco3)cc2)nc2ccccc21 [Compound 18, Furan-2-carboxylic acid[4-(4-Methyl-3-oxo-3,4-dihydro-quinoxalin-2ylamino)-phenyl]-amide] | 5.60 | 80
Cn1c(=O)c(Nc2ccc(NC(=O)c3cccnc3)cc2)nc2ccccc21 [Compound 16, N-[4-(4-Methyl-3-oxo-3,4-dihydro-quinoxalin-2ylamino)-phenyl]-nicotinamide] | 6.10 | 97
Cn1c(=O)c(Nc2ccc(-c3ccc[nH]3)cc2)nc2ccccc21 [Compound 22, 1-Methyl-3-[4-(1H-pyrrol-2-yl)-phenylamino]-1H-quinoxalin-2-one] | 5.60 | 92
Cn1c(=O)c(Nc2ccc(C(=O)NCc3ccccc3)cc2)nc2ccccc21 [Compound 78, N-Benzyl-4-(4-Methyl-3-oxo-3,4-dihydro-quinoxalin-2ylamino)-benzamide] | 6.16 | 96
Cn1cccc1C(=O)Nc1ccc(Nc2nc3ccccc3n(C)c2=O)cc1 [Compound 19, 1-Methyl-1H-pyrrole-2-carboxylic acid[4-(4-Methyl-3-oxo-3,4-dihydro-quinoxalin-2ylamino)-phenyl]-amide] | 5.30 | 77
Cn1c(=O)c(Nc2ccc(C(=O)Nc3cnccn3)cc2)nc2ccccc21 [Compound 12, 4-(4-Methyl-3-oxo-3,4-dihydro-quinoxalin-2ylamino)-N-pyrazin-2-yl-benzamide] | 5.89 | 68
Cn1c(=O)c(Nc2ccc(C(=O)Nc3ccon3)cc2)nc2cccnc21 [Compound 36, N-Isoxazol-3-yl-4-(4-Methyl-3-oxo-3,4-dihydro-pyrido[2,3-b]pyrazin-2-ylamino)-benzamide] | 6.49 | 96
Cn1c(=O)c(Nc2ccc(NC(=O)c3cccs3)cc2)nc2ccccc21 [Compound 17, Thiophene-2-carboxylic acid[4-(4-Methyl-3-oxo-3,4-dihydro-quinoxalin-2ylamino)-phenyl]-amide] | 5.82 | 70

Continued, values first:

pIC50 | inhibition at 20 µM [%] | SMILES
5.74 | 89 | COC(=O)c1ccc(Nc2nc3ccccc3n(CCN3CCOCC3)c2=O)cc1 [Compound 57]
6.15 | 99 | CN(C)CCn1c(=O)c(Nc2ccc(C(=O)NCc3cccs3)cc2)nc2ccccc21 [Compound 70]
– | 95 | O=C(NCc1cccs1)c1ccc(Nc2nc3ccccc3n(CCN3CCCCC3)c2=O)cc1 [Compound 62]
6.52 | 99 | O=C(NCc1cccs1)c1ccc(Nc2nc3ccccc3n(CCO)c2=O)cc1 [Compound 51]
5.24 | 77 | O=C(O)Cn1c(=O)c(Nc2ccc(C(=O)NCc3cccs3)cc2)nc2ccccc21 [Compound 75, (2-Oxo-3-{4-[(thiophen-2ylmethyl)-carbamoyl]-phenylamino}-2H-quinoxalin-1-yl)-acetic acid]
6.59 | 97 | O=C(Nc1ccon1)c1ccc(Nc2nc3ccccc3n(CCN3CCOCC3)c2=O)cc1 [Compound 55, N-Isoxazol-3-yl-4-[4-(2-Morpholin-4-yl-ethyl)-3-oxo-3,4-dihydro-quinoxalin-2ylamino]-bezamide]
6.34 | 100 | CCn1c(=O)c(Nc2ccc(C(=O)Nc3cc[nH]n3)cc2)nc2ccccc21 [Compound 29, 4-(4-Ethyl-3-oxo-3,4-dihydro-quinoxalin-2ylamino)-N-(1H-pyrazol-3-yl)-benzamide]
6.92 | 100 | CCn1c(=O)c(Nc2ccc(C(=O)Nc3ccon3)cc2)nc2ccccc21 [Compound 28, N-Isoxazol-3-yl-4-(4-Ethyl-3-oxo-3,4-dihydro-quinoxalin-2ylamino)-benzamide]
6.08 | 90 | CCn1c(=O)c(Nc2ccc(C(=O)Nc3nccs3)cc2)nc2ccccc21 [Compound 30, 4-(4-Ethyl-3-oxo-3,4-dihydro-quinoxalin-2ylamino)-N-thiazol-2-yl-benzamide]
6.15 | 93 | Cn1c(=O)c(Nc2ccc(C(=O)Nc3ccsc3)cc2)nc2ccccc21 [Compound 9, 4-(4-Methyl-3-oxo-3,4-dihydro-quinoxalin-2ylamino)-N-thiophen-3-yl-benzamide]
6.92 | 92 | Cn1c(=O)c(Nc2ccc(C(=O)Nc3ccno3)cc2)nc2ccccc21 [Compound 7, N-Isoxazol-5-yl-4-(4-Methyl-3-oxo-3,4-dihydro-quinoxalin-2ylamino)-benzamide]
6.05 | 95 | Cn1ccc(NC(=O)c2ccc(Nc3nc4ccccc4n(C)c3=O)cc2)n1 [Compound 8]
